According to the NIST ThermoML archive (doi:10.1021/acs.jced.8b00028):

Conditions: 101 kPa, Liquid

OCCO [1,2-ethanediol]
mass density [kg/m3]
Conditions	Buoyancy - hydrostatic balance	Pycnometric method
273.15 K	1127.2	1127.05
283.15 K	1120.58	1120.5
293.15 K	1113.84	1113.84
303.15 K	1106.98	1107.07
313.15 K	1099.99	1100.19
323.15 K	1092.88	1093.2
333.15 K	1085.65	1086.11
343.15 K	1078.29	1078.91
353.15 K	1070.8	1071.6
363.15 K	1063.2	1064.18
373.15 K	1055.47	–
383.15 K	1047.62	–
393.15 K	1039.64	–
403.15 K	1031.53	–
413.15 K	1023.31	–
423.15 K	1014.96	–
433.15 K	1006.48	–
443.15 K	997.88	–
453.15 K	989.16	–
463.15 K	980.31	–
473.15 K	971.34	–

CC(O)CO (configuration not stated) [1,2-propanediol]
mass density [kg/m3]
Conditions	Buoyancy - hydrostatic balance	Pycnometric method
273.15 K	1051.77	1052.17
283.15 K	1044.65	1044.74
293.15 K	1037.13	1037.22
303.15 K	1029.87	1029.64
313.15 K	1022.37	1021.98
323.15 K	1014.64	1014.25
333.15 K	1006.75	1006.45
343.15 K	998.71	998.57
353.15 K	990.77	990.62
363.15 K	982.38	982.6
373.15 K	973.81	–
383.15 K	965.04	–
393.15 K	956.09	–
403.15 K	946.95	–
413.15 K	937.62	–
423.15 K	928.1	–
433.15 K	918.39	–
443.15 K	908.5	–
453.15 K	898.41	–
463.15 K	888.14	–

CCCCCCC [heptane]
mass density [kg/m3]
Conditions	293.15 K	301.62 K	310.71 K	319.85 K	329.04 K	338.26 K	347.53 K	356.84 K
Buoyancy - hydrostatic balance	683.65	675.96	668.05	660.16	652.58	644.01	635.57	627.05
Pycnometric method	683.67	675.75	667.37	659.85	651.92	644.32	635.91	627.85
